Measured values as given in patent US20190119251A1, “AMIDE-SUBSTITUTED ARYLTRIAZOLE DERIVATIVES AND USES THEREOF” (BAYER PHARMA AKTIENGESELLSCHAFT, priority 2016, published 2019).

Experiments:
human V1a receptor = target: T1, human V1a receptor (Homo sapiens, UniProt P37288); assay: Cellular in vitro assay for determining vasopressin receptor activity (V1a cell line, aequorin luminescence); format: cell-based; conditions: for IC50: CHO cell line transfected with the human V1a receptor, agonist [Arg8]-vasopressin at EC50 concentration, read-out: IC50 hV1a; for ratio IC50 hV2/hV1a: ratio of cellular IC50 values, human V2 over human V1a
T1 construct: expressed in transfected cells; host or cells: CHO K1 (Chinese hamster ovary), also stably transfected with modified aequorin
T1 sequence (P37288 whole entry): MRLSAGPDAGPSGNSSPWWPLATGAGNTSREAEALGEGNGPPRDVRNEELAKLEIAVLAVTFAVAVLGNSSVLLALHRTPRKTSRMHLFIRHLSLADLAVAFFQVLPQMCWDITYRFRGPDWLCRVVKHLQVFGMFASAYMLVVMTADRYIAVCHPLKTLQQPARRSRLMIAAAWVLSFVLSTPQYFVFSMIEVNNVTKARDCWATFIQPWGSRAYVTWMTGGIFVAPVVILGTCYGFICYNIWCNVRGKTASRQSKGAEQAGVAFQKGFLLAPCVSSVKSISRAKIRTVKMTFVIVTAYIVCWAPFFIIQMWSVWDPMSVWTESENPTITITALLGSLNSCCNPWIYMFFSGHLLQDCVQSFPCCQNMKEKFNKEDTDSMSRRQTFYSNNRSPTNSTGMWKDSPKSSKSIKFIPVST
Experimental: (§1) B-1. Cellular In Vitro Assay for Determining Vasopressin Receptor Activity
(§2) The identification of agonists and antagonists of the V 1 a and V2 vasopressin receptors from humans, rats and dogs as well as the quantification of the activity of the compounds of the invention is carried out using recombinant cell lines. These cell lines originally derive from a hamster's ovary epithelial cell (Chinese Hamster Ovary, CHO K1, ATCC: American Type Culture Collection, Manassas, Va. 20108, USA). The test cell lines constitutively express the human, rat or dog
(§3) V1 a or V2 receptors. In case of the Gag-coupled V 1 a receptors, cells are also stably transfected with a modified form of the calcium-sensitive photoproteins aequorin (human and rat V1a) or obelin (dog V 1 a), which, after reconstitution with the cofactor coelenterazine, emit light when there are increases in free calcium concentrations [Rizzuto R, Simpson A W, Brini M, Pozzan T, Nature 358, 325-327 (1992); Illarionov B A, Bondar V S, Illarionova V A, Vysotski E S, Gene 153 (2), 273-274 (1995)]. The resulting vasopressin receptor cells react to stimulation of the recombinantly expressed V 1 a receptors by intracellular release of calcium ions, which can be quantified by the resulting photoprotein luminescence. The Gs-coupled V2 receptors are stably transfected into cell lines expressing the gene for firefly luciferase under control of a CRE-responsible promoter. Activation of V2 receptors induces the activation of the CRE-responsive promoter via cAMP increase, thereby inducing the expression of firefly luciferase. The light emitted by photoproteins of V1a cell lines as well as the light emitted by firefly luciferase of V2 cell lines corresponds to the activation or inhibition of the respective vasopressin receptor. The bioluminescence of the cell lines is detected using a suitable luminometer [Milligan G, Marshall F, Rees S, Trends in Pharmacological Sciences 17, 235-237 (1996)].
Vasopressin V1a Receptor Cell Lines:
On the day before the assay, the cells are plated out in culture medium (DMEM/F12, 2% FCS, 2 mM glutamine, 10 mM HEPES, 5 μg/ml coelenterazine) in 384-well microtiter plates and kept in a cell incubator (96% humidity, 5% v/v CO2, 37° C.). On the day of the assay, test compounds in various concentrations are placed for 10 minutes in the wells of the microtiter plate before the agonist [Arg^8]-vasopressin at EC50 concentration is added. The resulting light signal is measured immediately in a luminometer.
(§4) Table 1A below lists individual IC50 values for the compounds of the invention (including racemic mixtures as well as separated enantiomers) that were obtained from cell lines transfected with the human V1a or V2 receptor: […]

human V2 receptor = target: T2, human V2 receptor (Homo sapiens, UniProt P30518); assay: Cellular in vitro assay for determining vasopressin receptor activity (V2 cell line, CRE-luciferase); format: cell-based; conditions: CHO cell line transfected with the human V2 receptor; agonist [Arg8]-vasopressin at EC50 concentration; 3 hours incubation; read-out: IC50 hV2
T2 construct: expressed in transfected cells; host or cells: CHO K1 (Chinese hamster ovary) expressing firefly luciferase under a CRE-responsive promoter
T2 sequence (P30518 whole entry): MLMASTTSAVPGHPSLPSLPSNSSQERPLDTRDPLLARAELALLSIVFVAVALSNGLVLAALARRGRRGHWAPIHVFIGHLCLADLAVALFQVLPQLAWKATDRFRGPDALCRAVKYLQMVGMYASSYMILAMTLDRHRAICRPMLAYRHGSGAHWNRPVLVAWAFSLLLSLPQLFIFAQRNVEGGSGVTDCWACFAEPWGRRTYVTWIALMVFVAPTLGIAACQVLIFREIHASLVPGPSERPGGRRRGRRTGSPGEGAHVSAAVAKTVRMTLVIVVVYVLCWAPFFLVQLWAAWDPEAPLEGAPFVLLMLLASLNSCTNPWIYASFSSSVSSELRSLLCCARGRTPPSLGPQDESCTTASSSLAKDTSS
Experimental: as §1, §2, §3
Vasopressin V2 Receptor Cell Lines:
On the day before the assay, the cells are plated out in culture medium (DMEM/F12, 2% FCS, 2 mM glutamine, 10 mM HEPES) in 384-well microtiter plates and kept in a cell incubator (96% humidity, 5% v/v CO2, 37° C.). On the day of the assay, test compounds in various concentrations and the agonist [Arg^8]-vasopressin at EC50 concentration are added together to the wells, and plates are incubated for 3 hours in a cell incubator. Upon addition of the cell lysis reagent Triton™ and the substrate luciferin, luminescence of firefly luciferase is measured in a luminometer.
as §4

IC50 (human V1a receptor) [µM] | ratio IC50 hV2/hV1a (human V1a receptor) | IC50 (human V2 receptor) [µM] | SMILES
0.00111 | 6.9 | 0.00763 | COc1ccccc1-n1nc(Cn2nc(-c3ccc(Cl)cc3)n(C[C@H](O)C(F)(F)F)c2=O)nc1C(N)=O [Example 34, 3-({3-(4-Chlorophenyl)-5-oxo-4-[(2S)-3,3,3-trifluoro-2-hydroxypropyl]-4,5-dihydro-1H-1,2,4-triazol-1-yl}methyl)-1-(2-methoxyphenyl)-1H-1,2,4-triazole-5-carboxamide]
0.00065 | 7.5 | 0.00491 | Cc1ccccc1-n1nc(Cn2nc(-c3ccc(Cl)cc3)n(C[C@H](O)C(F)(F)F)c2=O)nc1C(N)=O [Example 19, 3-({3-(4-Chlorophenyl)-5-oxo-4-[(2S)-3,3,3-trifluoro-2-hydroxypropyl]-4,5-dihydro-1H-1,2,4-triazol-1-yl}methyl)-1-(2-methylphenyl)-1H-1,2,4-triazole-5-carboxamide]
0.027 | 14.4 | 0.39 | NC(=O)c1nc(Cn2nc(-c3ccc(Cl)cc3)n(C[C@H](O)C(F)(F)F)c2=O)nn1-c1ccncc1Cl [Example 6, 3-({3-(4-Chlorophenyl)-5-oxo-4-[(2S)-3,3,3-trifluoro-2-hydroxypropyl]-4,5-dihydro-1H-1,2,4-triazol-1-yl}methyl)-1-(3-chloropyridin-4-yl)-1H-1,2,4-triazole-5-carboxamide]
0.0183 | 1.3 | 0.0239 | NC(=O)c1nc(Cn2nc(-c3ccc(Cl)cc3)n(C[C@H](O)C(F)(F)F)c2=O)nn1-c1cccc(F)c1 [Example 32, 3-({3-(4-Chlorophenyl)-5-oxo-4-[(2S)-3,3,3-trifluoro-2-hydroxypropyl]-4,5-dihydro-1H-1,2,4-triazol-1-yl}methyl)-1-(3-fluorophenyl)-1H-1,2,4-triazole-5-carboxamide]
0.175 | 0.2 | 0.035 | NC(=O)c1nc(Cn2nc(-c3ccc(Cl)cc3)n(C[C@H](O)C(F)(F)F)c2=O)nn1-c1cc(Cl)ccn1 [Example 15, 3-({3-(4-Chlorophenyl)-5-oxo-4-[(2S)-3,3,3-trifluoro-2-hydroxypropyl]-4,5-dihydro-1H-1,2,4-triazol-1-yl}methyl)-1-(4-chloropyridin-2-yl)-1H-1,2,4-triazole-5-carboxamide]
0.014 | 0.7 | 0.00975 | NC(=O)c1nc(Cn2nc(-c3ccc(Cl)cc3)n(C[C@H](O)C(F)(F)F)c2=O)nn1-c1ccccc1 [Example 30, 3-({3-(4-Chlorophenyl)-5-oxo-4-[(2S)-3,3,3-trifluoro-2-hydroxypropyl]-4,5-dihydro-1H-1,2,4-triazol-1-yl}methyl)-1-phenyl-1H-1,2,4-triazole-5-carboxamide]
0.0935 | 2.6 | 0.245 | COc1nccnc1-n1nc(Cn2nc(-c3ccc(Cl)cc3)n(C[C@H](O)C(F)(F)F)c2=O)nc1C(N)=O [Example 9, 3-({3-(4-Chlorophenyl)-5-oxo-4-[(2S)-3,3,3-trifluoro-2-hydroxypropyl]-4,5-dihydro-1H-1,2,4-triazol-1-yl}methyl)-1-(3-methoxypyrazin-2-yl)-1H-1,2,4-triazole-5-carboxamide]
0.125 | 1.2 | 0.15 | Cc1ccnc(Cl)c1-n1nc(Cn2nc(-c3ccc(Cl)cc3)n(C[C@H](O)C(F)(F)F)c2=O)nc1C(N)=O [Example 12, 1-(2-Chloro-4-methylpyridin-3-yl)-3-({3-(4-chlorophenyl)-5-oxo-4-[(2 S)-3,3,3-trifluoro-2-hydroxypropyl]-4,5-dihydro-1H-1,2,4-triazol-1-yl}methyl)-1H-1,2,4-triazole-5-carboxamide]
0.00295 | 2.2 | 0.00645 | NC(=O)c1nc(Cn2nc(-c3ccc(Cl)cc3)n(C[C@H](O)C(F)(F)F)c2=O)nn1-c1c(F)cccc1F [Example 25, 3-({3-(4-Chlorophenyl)-5-oxo-4-[(2S)-3,3,3-trifluoro-2-hydroxypropyl]-4,5-dihydro-1H-1,2,4-triazol-1-yl}methyl)-1-(2,6-difluorophenyl)-1H-1,2,4-triazole-5-carboxamide]
0.0026 | 11.7 | 0.0305 | NC(=O)c1nc(Cn2nc(-c3ccc(Cl)cc3)n(C[C@H](O)C(F)(F)F)c2=O)nn1-c1ccccc1[N+](=O)[O-] [Example 24, 3-({3-(4-Chlorophenyl)-5-oxo-4-[(2S)-3,3,3-trifluoro-2-hydroxypropyl]-4,5-dihydro-1H-1,2,4-triazol-1-yl}methyl)-1-(2-nitrophenyl)-1H-1,2,4-triazole-5-carboxamide]
0.69 | 3.3 | 2.25 | NC(=O)c1nc(Cn2nc(-c3ccc(Cl)cc3)n(C[C@H](O)C(F)(F)F)c2=O)nn1-c1ncccn1 [Example 16, 3-({3-(4-Chlorophenyl)-5-oxo-4-[(2S)-3,3,3-trifluoro-2-hydroxypropyl]-4,5-dihydro-1H-1,2,4-triazol-1-yl}methyl)-1-(pyrimidin-2-yl)-1H-1,2,4-triazole-5-carboxamide]
0.024 | 0.2 | 0.00455 | NC(=O)c1nc(Cn2nc(-c3ccc(Cl)cc3)n(C[C@H](O)C(F)(F)F)c2=O)nn1-c1cccc(Cl)c1 [Example 33, 1-(3-Chlorophenyl)-3-({3-(4-chlorophenyl)-5-oxo-4-[(2S)-3,3,3-trifluoro-2-hydroxypropyl]-4,5-dihydro-1H-1,2,4-triazol-1-yl}methyl)-1H-1,2,4-triazole-5-carboxamide]
0.0038 | 23.0 | 0.0875 | NC(=O)c1nc(Cn2nc(-c3ccc(Cl)cc3)n(C[C@@H](O)C(F)(F)F)c2=O)nn1-c1ccccc1Cl [Example 36, 1-(2-Chlorophenyl)-3-({3-(4-chlorophenyl)-5-oxo-4-[(2R)-3,3,3-trifluoro-2-hydroxypropyl]-4,5-dihydro-1H-1,2,4-triazol-1-yl}methyl)-1H-1,2,4-triazole-5-carboxamide]
